Blank lines part the entries; values can stand above or below the molecule they belong to.
Key:
[1] = test system: human embryoid bodies (H9 HESCs); test: DNA microarray global gene expression profiling of treated HESC embryoid bodies; conditions: for genes whose expression was significantly changed (over two-fold) relative to untreated controls: EBs treated seven days
Procedure: Differentiation in-vitro into embryoid bodies (EBs) was performed by trypsinizing confluent cultures using 0.25% trypsin-A in DPBS solution (Biological industries, Beit-Haemek, Israel) for 15 seconds to dissociate the colonies into large clumps. Clumps were then transferred 1:1 into non-stick petri dishes and grown in regular HESC medium but without exogenous FGF2.
Drug treatments: Embryoid body media were supplemented with the various treatment compounds on the first day and changed on alternate days. […] Thalidomide (Sigma, T144) was dissolved in DMSO at 1000× stock solution and used at a final concentration of 10 μg/ml. All-trans-Retinoic acid (Sigma, R2625) was dissolved in DMSO at 100,000× stock solution and used at a final concentration of 1 μM.
Microarray data analysis: Following seven days in culture, embryoid bodies were harvested and RNA was extracted using RBC Bioscience (Taipei, Taiwan) total RNA extraction minikit (YRB50) according to the manufacturer's protocol. Hybridization to GeneChip Human Gene 1.0 ST expression arrays, washing and scanning were performed according to the manufacturer's protocol (Affymetrix). Arrays were analyzed using RMA probeset condensation algorithm (Expression Console, Affymetrix). […] Tissue specific genes were identified by comparing the expression of each of the five most relevant tissues to the mean expression of all other tissues (testis, brain, heart, spleen, skeletal muscle, kidney, liver, and breast). The top 200 genes by fold change for every tissue were regarded to be tissue specific genes.
Genes were considered differentially expressed when changed over two-fold. […] Significance was calculated separately for each test using a Chi-Square independence test and corrected for multiple testing (Bonferroni). […] Functional classification and significance were performed using the DAVID online functional annotation tool (worldwidewebdotdaviddotabccdotncifcrfdotgov/) using default settings, with a minimum p-value of 0.0001. General annotations with over 2000 members were removed from the analysis.

mouse = conditions: in vivo; cited from earlier work
human = conditions: in vivo; cited from earlier work
[2] = test system: AFP, SOX17, HOXA1, NCAM1 in EBs; test: Immunofluorescent labeling of treated EBs; type: cell-based, human
Procedure: Immunofluorescent labeling: EBs were treated for seven days with either 1.5% ethanol or 1 μM all-trans-retinoic acid (see Drug Treatment section). EBs were let to settle and perfused with 10% sucrose-PBS solution for 30 minutes at 4° C., followed by an additional step in 30% sucrose-PBS solution for 1 hr at 4° C., with gentle shaking. EBs were then frozen in Tissue-Tek OCT solution (Sakura Finetek, USA) and cut into 9 μm sections. Samples were fixed following sectioning with PBS buffered 4% formaldehyde solution for 3 minutes. Blocking was performed with PBS, 2% BSA, 0.1% Triton x-100 solution for 1 hour at room temperature. Sections were incubated overnight at 4° C. with the following primary antibodies; AFP at 1:50 dilution (SC-8399, Santa-Cruz); HOXA1 at 1:50 dilution (SC-17146, Santa-Cruz); NCAM-1 at 1:150 dilution (AF2408, R&D Systems); SOX17 at 1:400 dilution (AF1924, R&D Systems). The sections were then incubated for 1 hour with the appropriate secondary antibody (Cy-3, Jackson ImmunoResearch) at room temperature. Finally, sections were counterstained with Hoechst (B2883, Sigma) for 10 minutes at room temperature.
Specifically, the protein levels of the fetal liver specific gene AFP and the earlier endodermal marker SOX17 were examined to assess the effects of ethanol treatment. The effect of RA treatment on neural differentiation was determined using antibodies for the HOXA1 protein and the neuronal specific protein NCAM1.

[3] = test system: HiPSC EBs (hTERT-BJ1 derived clone #28); test: DNA microarray gene expression profiling of RA-treated HiPSC embryoid bodies; type: cell-based, human; conditions: RA 1 μM, seven days
Procedure: Thalidomide was tested twice and caffeine once.

rodents = conditions: in vivo; cited from earlier work
[4] = lithium chloride 1 mM, caffeine 50 mg/ml, RA 1 μM, thalidomide 10 μg/ml
[5] = Gene Ontology functional annotation (DAVID), thalidomide 10 μg/ml
[6] = seven days, RA 1 μM, thalidomide 10 μg/ml

genes whose expression was significantly changed (over two-fold) relative to untreated controls [1, 4]: several hundred
downregulation of oxidative stress response genes, enrichment [1, 5]: 15.8 fold
nervous system development genes affected, enrichment [1, 5]: 2.5 fold
transforming growth factor beta genes affected, enrichment [1, 5]: 29.6 fold
upregulation of genes responsible for metabolism of xenobiotics, enrichment [1, 5]: 11.5 fold
fold enrichment of brain specific genes in upregulated genes [1, 6]: 12.5 fold
fold enrichment of liver specific genes in downregulated genes ([1]; seven days, thalidomide 10 μg/ml): 4.4 fold
Compound: O=C1CCC(N2C(=O)c3ccccc3C2=O)C(=O)N1 (centres unmarked) [thalidomide, Thalidomide]
teratogenicity in the mouse (mouse): not identified prospectively as such
teratogenicity in humans (human): strong human teratogen

genes whose expression was significantly changed (over two-fold) relative to untreated controls [1, 4]: several hundred
homeobox protein genes enriched in upregulated genes, fold above expected frequency ([1]; Gene Ontology functional annotation (DAVID), RA 1 μM): 14.1 fold
fold enrichment of heart specific genes in downregulated genes ([1]; seven days, RA 1 μM): 5.3
fold enrichment of brain specific genes in upregulated genes [1, 6]: 2.6 fold
Compound: CC1=C(/C=C/C(C)=C/C=C/C(C)=C/C(=O)O)C(C)(C)CCC1 [RA, All-trans-Retinoic acid]
expression of anterior HoxA and HoxB genes ([1]; HESC EBs, RA 1 μM, seven days): specifically upregulated
HOXA1 overexpression at the mRNA level ([1]; RA 1 μM, seven days, relative to control): 13.6 fold
NCAM1 abundance at the protein level ([2]; 1 μM all-trans-retinoic acid, seven days): increase
differentiation into the neuronal lineage (HOXA1 and NCAM1 labeling) ([2]; RA treatment): higher differentiation into the neuronal lineage
expression of anterior HoxA and HoxB genes [3]: specifically upregulated

genes whose expression was significantly changed (over two-fold) relative to untreated controls ([1]; 0.5% ethanol (v/v)): little or no effect
genes whose expression was significantly changed (over two-fold) relative to untreated controls ([1]; ethanol 1.5% and 2%, analyzed together): several hundred
liver protein genes, upregulated functional group enrichment ([1]; Gene Ontology functional annotation (DAVID), ethanol treated EBs): 9.3 fold
expression of later adult hepatic markers (albumin, alcohol dehydrogenase genes) ([1]; ethanol treated EBs): not upregulated
Compound: CCO [ethanol, Ethanol]
enriched functional annotations for downregulated genes ([1]; DAVID functional annotation, ethanol): no significantly enriched functional annotations
expression of early hepatic markers (AFP, transthyretin, apolipoprotein and fibrinogen genes) ([1]; high ethanol (1.5% and 2%)): specifically upregulated
AFP staining (protein level) ([2]; 1.5% ethanol, seven days): dramatic increase
SOX17 staining (protein level) ([2]; 1.5% ethanol, seven days): dramatic increase
AFP staining (protein level) ([2]; 1.5% ethanol, seven days, listed as Ethanol): elevation of AFP staining

Compound: CC(=O)Oc1ccccc1C(=O)O [aspirin]
teratogenicity in rodents (rodents): teratogenic
teratogenicity in humans (human): not in humans

— patent US8945847B2, “Methods and kits for ascertaining biosafety of an agent” (Yissum Research Development Company of the Hebrew …, priority 2010, dated 2015)
